Columns and labels:
MAPK1(ERK2) enzyme = target: T1, MAPK1(ERK2) enzyme (Homo sapiens, UniProt P28482); test: Z-Lyte Kinase Assay of ERK2; type: biochemical; conditions: read-out: Example 18 IC50
T1 construct: purchased Invitrogen PV3313
Method in brief: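 FRET-based Z-LYTE assay using ERK2 kinase with Ser/Thr3 peptide; compound tested at 0.00046–1 μM final in 2% DMSO. Kinase reaction ran 1 h at 25-30° C, followed by 1 h development. The coumarin/fluorescein emission ratio (445/520 nm) gave % phosphorylation, and IC50 was fitted from inhibition relative to uninhibited control.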

[1] = system: p-RSK (Thr359) in colo205 cells; test: p-RSK (Thr359) Acumen Assay in Colo205; type: cell-based; conditions: Homo sapiens, COLO 205, 1 hour compound incubation, read-out: Example 19 IC50
Method in brief: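 Colo205 cells (4000/well, seeded overnight in 10% FBS) were exposed 1 hour at 37° C to compound added from a 3–0.001 μM dilution series in 5% DMSO. Cells were then fixed, permeabilised and immunostained for p-RSK Thr359, with PI counterstain. Acumen cytometry gave the percentage of positive cells, normalised to untreated wells and 3 uM GDC0994 wells, for the IC50 fit.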

T1 sequence (P28482 whole entry): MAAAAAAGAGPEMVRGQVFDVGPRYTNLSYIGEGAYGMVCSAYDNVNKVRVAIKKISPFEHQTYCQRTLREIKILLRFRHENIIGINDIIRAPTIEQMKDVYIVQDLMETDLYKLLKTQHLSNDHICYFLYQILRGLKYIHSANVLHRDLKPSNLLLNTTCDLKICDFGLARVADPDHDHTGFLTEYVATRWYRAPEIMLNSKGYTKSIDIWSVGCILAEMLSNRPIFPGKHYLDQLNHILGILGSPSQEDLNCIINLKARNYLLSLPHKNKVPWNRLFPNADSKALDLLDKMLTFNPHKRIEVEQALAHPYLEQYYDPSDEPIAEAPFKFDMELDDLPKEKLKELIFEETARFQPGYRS

IC50 (MAPK1(ERK2) enzyme) [µM] | IC50 [1] [µM] | Structure (SMILES)
0.005 to 0.01 | ≤ 0.1 | CO[C@H]1Cn2cc(-c3cc(Nc4ccnn4C)ncc3Cl)cc2-c2nnc(C3(C(C)(F)F)CCC3)n2C1 [Compound 155]
0.005 to 0.01 | ≤ 0.1 | CO[C@H]1Cn2cc(-c3cc(Nc4ccnn4C)ncc3Cl)cc2-c2nnc(C3(C(F)(F)F)CCC3)n2C1 [Compound 165]
≤ 0.005 | ≤ 0.1 | Cc1cnc(Nc2c3c(nn2C)CCC3)nc1-c1cc2n(c1)C[C@H](CF)n1c(Cc3ccccc3F)nnc1-2 [Compound 150]
≤ 0.005 | > 0.1 | Cc1cnc(Nc2ccnn2C)cc1-c1cc2n(c1)CC(C)(C)n1c-2nnc1C(F)(F)C(F)F [Compound 234]

From patent US12492210B2, “Tricyclic compounds and their use” (HUTCHISON MEDIPHARMA LIMITED, priority 2019, dated 2025)
